Experimental data from patent US7119064B2, “Use of colostrinin, constituent peptides thereof, and analogs thereof as modulators of intracellular signaling molecules” (Board of Regents, The University of Texas System, priority 1999, dated 2006).
Marks after values point to notes of the source that are not given here.

Legend:
Type in all cases: cell-based
SH-SY5Y cells [1] = assay: Anti-apoptotic activity against β-amyloid toxicity in SH-SY5Y cells, microscopic grading; details: Beta-amyloid 10 μg/ml added on day 5
Method: To determine whether this was reproducible and to determine the potency of CLN to inhibit retinoic acid toxicity, two concentration of retinoic acid were used to treat cells on day one of the experiment, 20 μM and 40 μM. *Control wells were mock-treated for the duration of the experiment. Retinoic Acid was left on the plate for the duration of the experiment or until washed off. Colostrinin was added to the plate at the indicated doses. When added on Day 1, it was present during the entire experiment. When added on Day 5, it was incubated on the plate for 30 minutes at 37° C. and then removed. The wells were washed twice with PBS before adding β-Amyloid. Cultures were then observed under the microscope and graded.

JNK = assay: 4HNE-induced JNK activation, Western blot with anti-phospho-(Thr-183/Tyr-185) JNK antibody; details: PC12 cells
Method: Western blot analysis: PC12 cells were plated at 7×10^6 cells/T75 flask. After exposure to 4HNE, colostrinin or their combination, cells were collected and lysed in 50 millimolar (mM) Tris, 5 mM EDTA, 150 mM NaCl, 0.5% NP-40, 10% glycerol and protease inhibitor cocktail (supplemented with 1 mM Na3VO4, 2 mM EDTA, 1 mM phenylmethylsulfonyl fluoride). Lysates were centrifuged at 14,000g for 10 minutes (min) (4° C.) and 40 μg of protein was fractionated on a 10% SDS-polyaciylamide gel and transferred to protein-optimized membranes (Amersham, Inc.). p53 was detected using specific antibody (DO1; Santa Cruz Biotechnology, Inc.) at a dilution of 1:300. Adducts were detected using an antibody to HNE-protein adducts (Phanningen, Inc.) at a dilution of 1:500. The anti-phospho-JNK antibody (New England Biolabs, Inc., Beverly, Mass.) was raised against a synthetic phosphopeptide (SFMMT*PY*VVTRYYR) corresponding to residues 179–193 of JNK. […]
The effect of CLN on 4HNE-induced activation of JNK in PC12 cells was investigated. The activation of JNK was monitored by Western blot analysis using a highly specific anti-phospho- (Thr-183/Tyr-185) JNK antibody (Materials and Methods).

[2] = tested on: 4HNE-protein adducts in PC12 cells; assay: 4HNE-protein adduct formation, fluorescent microscopy (immunocytochemistry); details: 4HNE 25 nM or H2O2 100 μM alone
Text: Cell cultures: Pheochromocytoma (PC12) cells were provided by Dr. Regino Perez-Polo (University of Texas Medical Branch, Department of Human Biological Chemistry and Genetics) and maintained in EMEM supplemented with 10% fetal bovine serum, penicillin (100 IU/mI) and streptomycin (100 micrograms per milliliter (μg/ml)). Exponentially growing populations of PC12 cells were sub-cultured and used for all experiments.
Immunocytochemistry: PC12 cells grown on cover-slips were fixed overnight in PBS containing 2% paraformaldehyde at 4° C. Cells were permeabilized by 0.3% Triton X-100, washed in PBS then incubated with primary antibody in PBS containing 0.05% Tween 20 (PBS-T). After washing 3 times in PBS-T, FITC-labeled anti-rabbit IgG (Santa Cruz Biotechnology Inc.) was added. Cells were washed (5 times, for 10 min) with PBS-T and mounted on microscope slides in anti-fade solution (Dako, Inc.). Images of cellular immunofluorescence were acquired using a NIKON Eclipse TE300 scanning microscope.
Fluorescent microscopy and Western blot analysis was undertaken to investigate the extent of 4HNE protein-adduct formation in cultures of PC12 cells in the presence of CLN. Cells were pretreated with CLN or LAH in the presence or absence of 4HNE and then analyzed for the formation of 4HNE-protein adducts.

[3] = tested on: 4HNE-protein adducts in PC12 cells; assay: 4HNE-protein adduct levels, Western blot analysis; details: 4HNE 25, 12.5, 6.2 nM alone
Method: (§1) Western blot analysis: PC12 cells were plated at 7×10^6 cells/T75 flask. After exposure to 4HNE, colostrinin or their combination, cells were collected and lysed in 50 millimolar (mM) Tris, 5 mM EDTA, 150 mM NaCl, 0.5% NP-40, 10% glycerol and protease inhibitor cocktail (supplemented with 1 mM Na3VO4, 2 mM EDTA, 1 mM phenylmethylsulfonyl fluoride). Lysates were centrifuged at 14,000g for 10 minutes (min) (4° C.) and 40 μg of protein was fractionated on a 10% SDS-polyaciylamide gel and transferred to protein-optimized membranes (Amersham, Inc.). p53 was detected using specific antibody (DO1; Santa Cruz Biotechnology, Inc.) at a dilution of 1:300. Adducts were detected using an antibody to HNE-protein adducts (Phanningen, Inc.) at a dilution of 1:500. The anti-phospho-JNK antibody (New England Biolabs, Inc., Beverly, Mass.) was raised against a synthetic phosphopeptide (SFMMT*PY*VVTRYYR) corresponding to residues 179–193 of JNK. For visualization of primary antibody binding, all blots were incubated with horseradish peroxidase-conjugated secondary antibody (Amersham, Inc.) at a dilution of 1:2000, followed by chemiluminescence detection (Amersham, Inc.) and autoradiography.
To confirm the results generated by immunochemistry, Western blot analysis was used to investigate changes in 4HNE-protein adduct levels in cells treated with 4HNE alone or CLN plus 4HNE.

[4] = tested on: intracellular GSH in PC12 cells; assay: Intracellular glutathione (GSH) level, o-phthalaldehyde fluorimetry
Method: Measurement of glutathione (GSH): In brief, PC12 cells were mock- or pre-treated with CLN or lactalbumin hydrolysate (LAH), both in 10 μg/ml concentration and then exposed to 4HNE (25 nM). PBS-washed (twice) cells were then extracted with 25% (w/v) metaphosphoric acid solution containing 5 mM EDTA. After ultracentrifugation (105,000 g for 30 min), 100 μl of 100 mM phosphate solution (pH 8.0) containing 5 mM EDTA and 10 μl of o-phthalaldehyde OPA(OPD; Molecular Probes, Inc.) was added to the supernatant, and the fluorescence intensity at 420 nm determined with excitation set at 350 nm (A. P. Senft et al., Anal Biochem., 280:80–86 (2000)).
To investigate whether the anti-oxidant effect of CLN was due to protection of intracellular GSH levels, PC12 cells were pre-treated (with CLN or LAH) and exposed to 4HNE, as described above, and changes in GSH levels were determined fluorimetrically. […] OPA (o-phthalaldehyde or phthalic dicarboxaldehyde) is highly fluorescent when it is conjugated to GSH (A.P. Senft et al., Anal Biochem., 280:80–86 (2000)).

[5] = tested on: GSH extrusion from PC12 cells; assay: Reduced GSH in extracellular fluid (GSH extrusion); details: 4HNE, relative to CLN- or mock-treated cells
Method: To determine whether the loss of intracellular GSH was due to it's extrusion from the cells or oxidation, the level of reduced GSH in the extra-cellular fluid was evaluated.

p53 = assay: 4HNE-induced activation of p53, Western blot; details: 4HNE-treated PC12 cells
Method: as §1
Whether CLN could modulate p53 levels after 4HNE exposure was also investigated.

PC12 cells = assay: 4HNE-induced apoptosis, annexin V-PE / 7-AAD flow cytometry
Method: FIG. 8. […] PC12 cells were treated with CLN (1 μg per ml) for 15 min and 4HNE (100 nM) was added. Twenty four hours later, cells were harvested and stained with annexin V-PE and 7-AAD. 1, solvent alone; 2, 100 nM 4HNE; 3, TROLOX (vitamin E) 4, col (internal control)+100 nM 4HNE; 5, CLN alone (1 μg per ml); 6, CLN (1 μg per ml)+100 nM 4HNE.
Apoptosis is a specific mode of cell death recognized by a characteristic pattern of morphological, biochemical, and molecular changes. Currently the hallmark of apoptosis in vitro is DNA fragmentation and changes in plasma membrane reorganization that allows for the surface expression of phosphatidyl-D-serine and result in increased membrane permeability. The protection of cells against 4HNE by CLN using increased permeability and cell membrane expression of phosphatidyl-D-serine was investigated.
Cells were simultaneously labeled with fluorochrome-conjugated annexin V-PE (detecting PS asymmetry in the plasma membrane, an early marker of apoptosis), 7-aminoactinomycin D (7-AAD) (detecting increased membrane permeability associated with both apoptosis and necrosis). A dual laser flow cytometer (either a Becton-Dickinson FACScan) was used for the simultaneous detection of the PE-conjugated annexin V (which is excited at […]), 7-AAD (excited at 488 nm and emitting at 670 nm). […]

SH-SY5Y cells [6] = assay: Protection against retinoic acid toxicity in SH-SY5Y cells, microscopic grading; details: for DIFFERENTIATION: Retinoic Acid 20 μM (Day 1) alone
Method: Retinoic Acid was left on the plate for the duration of the experiment or until washed off. Colostrinin was added to the plate at the indicated doses. When added on Day 1, it was present during the entire experiment. When added on Day 5, it was incubated on the plate for 30 minutes at 37° C. and then removed. The wells were washed twice with PBS before adding β-Amyloid. Cultures were then observed under the microscope and graded.

β-Amyloid
cell morphology, Beta-amyloid alone (FIG. 6B) (SH-SY5Y cells [1]): show its toxicity

Nc1ncnc2c1nc(Sc1ccc(Cl)cc1)n2[C@@H]1O[C@@H]2COP(=O)(O)O[C@H]2[C@H]1O [8-(4-chlorophenylthio)-cAMP]
4HNE-induced JNK phosphorylation (JNK; pretreatment with inhibitor of JNK activation): prevented 4HNE-induced JNK phosphorylation

CCCCCC(O)/C=C/C=O (centres unmarked) [4HNE]
4HNE-protein adduct fluorescence, inducer alone [2]: bright fluorescence
4HNE-protein adduct levels (Western blot), 4HNE alone [3]: significant increase in levels of 4HNE-protein adducts
loss of GSH ([4]; 4HNE 25 nM): more than 50%
intracellular GSH levels, 4HNE alone ([4]; 4HNE alone for 30 min): significant reduction of intracellular GSH levels
OPA-GSH-mediated fluorescence of extracellular fluid [5]: significant increase in OPA-GSH-mediated fluorescence
JNK phosphorylation, 4HNE alone (JNK; 4HNE 25 nM alone): potent inducer of JNK phosphorylation
p53 activation, 4HNE alone (p53): induced its activation
toxic effects / induction of apoptosis (PC12 cells; 4HNE 25 nM, PC12 cells): did not show toxic effects or induce apoptosis
apoptosis, 4HNE alone (PC12 cells; 4HNE 100 nM): Induction of apoptosis

CC1=C(/C=C/C(C)=C/C=C/C(C)=C/C(=O)O)C(C)(C)CCC1 [Retinoic Acid]
DIFFERENTIATION (SH-SY5Y cells [6]; cells observed Day 2): ++++ (Day 2)^b (++++ Approximately 100% of the cells)
DIFFERENTIATION (SH-SY5Y cells [6]; cells observed Day 8): + (Day 8)^b (+ Approximately 25% of the cells)
onset of toxicity, retinoic acid alone (SH-SY5Y cells [6]; retinoic acid 20 μM): started showing signs of toxicity by day 6
cell morphology, retinoic acid alone (FIG. 6F) (SH-SY5Y cells [6]; retinoic acid 20 μM added on day 1): Toxic (apoptotic) effect
toxicity, retinoic acid alone (SH-SY5Y cells [6]; retinoic acid 40 μM): the toxicity developed too rapidly

OO [H2O2]
4HNE-protein adduct fluorescence, inducer alone [2]: bright fluorescence
